Ends that are not written are not given here.
Legend:
[1] = test system: GST-Mint1-PDZ1/2 protein; experiment: HTRF assay of bio-NC peptide association with GST-Mint1-PDZ1/2; format: binding; details: 1000 nM with 1000 nM GST-Mint1-PDZ1/2
[2] = test system: GST-Mint1-PDZ1/2 protein; experiment: ALPHA (AlphaScreen) assay of bio-NC peptide association with GST-Mint1-PDZ1/2; format: binding; details: with GST-Mint1-PDZ-1/2, 189 nM concentration
[3] = test system: formalin response; experiment: Formalin assay in rats after i.v. (tail vein) injection of peptide; format: in vivo; details: rat, tail vein injection 1 mM
Protocol: FIG. 2—Supression of phase II, but not phase I formalin response in rats injected with R9-QDHWC peptide. The effect of i.v. administration of PBS, R9 (1 mM) or R9-QDHWC (1 mM) on phase I and phase II of the formalin assay. Phase I represents the period from 0-10 min following formalin injection and phase II represents the period from 11-60 min following formalin injection. N=4-7 rats per group. *** indicates a significant difference when compared to PBS injection (p<0.01).
As is shown in FIG. 2, the peptide R9-QDHWC (full sequence RRRRRRRRRQDHWC; SEQ ID NO_also inhibits phage II but not phase I responses in the rat formalin model. Male Sprague Dawley rats (175-225 gm) received a tail vein injection of either PBS, R9 (1 mM), or R9-QDHWC (1 mM) following which they were placed in a plexiglass observation chamber to allow for acclimation. Thirty minutes following the tail vein injection, the dorsal surface of one hind paw was injected with 50 ul of a 5% formalin solution. Observers, blind to drug treatment, scored the number of biting, licking, and scratching behaviors of the injected hindlimb and paw. Data were analyzed with SigmaStat Software (SPSS, Inc. v. 2.03) using ANOVA followed by a Tukey post hoc analysis.

[4] = test system: mature hippocampal neuronal cultures; experiment: FM1-43 imaging, double-staining protocol (synaptic function); format: cell-based; details: neurons incubated with 50 μM peptide for 15 min; 90 mM KCl stimulation
Description: FIGS. 3A-D—Effects of R9-QDHWC peptides on synaptic function. Double-staining protocol is shown on the top. Results of first and second destaining are shown for representative puncta for control neurons (FIG. 3A), for neurons loaded with R9 peptide (FIG. 3B) and for neurons loaded with R9-QDHWC peptide (FIG. 3C). An average d2/d1 ratios are compared for all 3 groups of neurons (FIG. 3D).
An FM1-43 imaging was used to study synaptic effects of R9-QDHWC competitive peptide that corresponds to Mint-PDZ binding site on Cav2.2 subunit. In these experiments we adapted double-staining protocol from (Reuter, 1995). First the mature hippocampal neuronal cultures were stained with FM1-43 dye for 90 sec in the presence of 47 mM KCl (FIG. 3, top). Following staining and washout of the dye (10 min) the neurons were stimulated by 90 mM KCl and the initial rate of destaining (d1) was measured at each puncta (FIG. 3, top). After completion of the first destaining protocol, the same neuronal culture was re-stained with FM1-43 for 90 sec in the presence of 47 mM KCl. […] The initial rate of destaining (d2) was once again measured at each puncta (FIG. 3, top).
To compare the results obtained during first and second destaining protocols and to minimize puncta-to-puncta variability, the inventors calculated the d2/d1 ratios for each puncta.

[5] = test system: formalin response; experiment: Formalin assay in mouse, test compound injected into the hindpaw; format: in vivo; details: hindpaw injection
Protocol: FIGS. 1A & 1B—Supression of phase II, but not phase I formalin response in mouse injected with R9-NC peptide. FIG. 1A. Sequence of R9-NC peptide. FIG. 1B. Results of formalin assay in control mouse (n=8) and mouse injected with R9-NC 60 min prior to formalin injection (n=8). Phase I response (1-10 min from formalin injection) and phase II response (11-60 min from formalin injection) are shown.
First, animals are injected with a 10 μM (20 μl) solution of the test compound (dissolved in PBS) in the dorsal surface of the hindpaw. One hour following the injection of the test compound, animals receive a formalin injection (20 μl of a 5% solution) into the dorsal surface of the hindpaw. The contralateral paw is not injected. Following injection, animals are immediately transferred to a plexiglass observation cage. Each animal is observed for a total of 60 minutes following formalin injection. The period spent biting, scratching, or licking the injected hindpaw is recorded (pain score). Data is presented as cumulative time spent biting, scratching, and licking in phase I (0-10 min) and phase II (11-60 min).
One hour following delivery of either saline (control) or R9-NC into the dorsum of the hindpaw, formalin (20 μl of a 5% solution) was injected into the same hindpaw. No effect of R9-NC on phase I of the formalin assay was observed.

Compound: O=C(O)CCCC[C@@H]1SC[C@@H]2NC(=O)N[C@@H]21 [Biotin]
- HTRF ratio [1]: less than 0.04
- ALPHA signal [2]: less than 1,500

Compound: RRRRRRRRR [R9, peptide permeant motif, used as control peptide]
- formalin induced phase II behaviors vs PBS ([3]; 30 min before formalin, phase II 11-60 min): not significantly different
- average d2/d1 ratio (initial rates of FM1-43 destaining) [4]: 0.55±0.15

Compound: RRRRRRRRRHSYHHPDQDHWC [R9-NC]
- side effect when injected in the hindpaw [5]: no untoward side effect

Compound: RRRRRRRRRQDHWC [R9-QDHWC, RRRRRRRRRQDHWC]
- adverse effects of delivery of the peptide to rats [3]: no apparent adverse effects

Source: patent US7829688B2, “Peptides of CaV2.2 that inhibit pain” (The Board of Regents of the University of Texas System, priority 2004, dated 2010)
